Test results from patent US8741897B2, “Glucocorticoid mimetics, methods of making them, pharmaceutical compositions and uses thereof” (Boehringer Ingelheim Pharmaceuticals Inc., priority 2003, dated 2014).

tested on: glucocorticoid receptor function; assay: one or more of the above assays (GR binding and glucocorticoid receptor cell assays: aromatase, IL-6, TAT, MMTV-Luc, IL-8, ICAM-Luc); format: cell-based; conditions: assay not specified per compound
Procedure: B. Glucocorticoid Receptor Cell Assays
1. Induction of Aromatase in Fibroblasts (Cell Assay for Transactivation)
Dexamethasone, a synthetic ligand to the glucocorticoid receptor (GR), induces expression of aromatase in human foreskin fibroblast cells. The activity of aromatase is measured by the conversion of testosterone to estradiol in culture media.
On the day of the experiment, the media in the wells is replaced with fresh media. Cells are treated with test compounds to final concentrations of 10^−5 M to 10^−8 M, and testosterone to a final concentration of 300 ng/mL. Each well has a total volume of 100 μL. Samples are made in duplicates. Control wells include: (a) wells that receive testosterone only, and (b) wells that receive testosterone plus 2 μM of dexamethasone to provide maximum induction of aromatase. Plates are incubated at 37° C. overnight (15 to 18 hours), and supernatants are harvested at the end of incubation. […] The amount of estradiol is inversely proportional to the ELISA signals in each well. The extent of aromatase induction by test compounds is expressed as a relative percentage to dexamethasone. EC50 values of test compounds are derived by non-linear curve fitting.
2. Inhibition of IL-6 Production in Fibroblasts (Cell Assay for Transrepression)
Human foreskin fibroblast cells produce IL-6 in response to stimulation by proinflammatory cytokine IL-1.
On the next day, media in the wells is replaced with fresh media. Cells are treated with IL-1 (rhIL-1α, R&D Systems Cat. No. 200-LA) to a final concentration of 1 ng/mL, and with test compounds to final concentrations of 10^−5 M to 10^−8 M, in a total volume of 200 μL per well. Samples are done in duplicates. […] Positive control wells receive IL-1 only and represent maximum (or 100%) amount of IL-6 production. Plates are incubated at 37° C. overnight (15 to 18 hours), and supernatants are harvested at the end of incubation. IL-6 levels in the supernatants are determined by the ELISA kits for IL-6 (MedSystems Diagnostics GmbH, Vienna, Austria, Cat. No. BMS213TEN) according to manufacture's instructions. The extent of inhibition of IL-6 by test compounds is expressed in percentage relative to positive controls. IC50 values of test compounds are derived by non-linear curve fitting.
Evaluation of agonist or antagonist activity of compounds binding to the glucocorticoid receptor may be determined by any of the assays.
3. Modulation of Tyrosine Aminotransferase (TAT) Induction in Rat Hepatoma Cells
Testing of compounds for agonist or antagonist activity in induction of tyrosine aminotransferase (TAT) in rat hepatoma cells.
H4-II-E-C3 cells were incubated overnight in 96 well plates (20,000 cells/100 μL/well) in MEM medium containing 10% heat inactivated FBS and 1% nonessential amino acids. On the next day, cells were stimulated with the indicated concentrations of dexamethasone or test compound (dissolved in DMSO, final DMSO concentration 0.2%) for 18 hours. Control cells were treated with 0.2% DMSO. After 18 hours, the cells were lysed in a buffer containing 0.1% Triton X-100 and the TAT activity was measured in a photometric assay using tyrosine and alpha-ketoglutarate as substrates.
For measuring antagonist activity, the hepatoma cells were pre-stimulated by addition of dexamethasone (concentration ranges from 3×10^−9 M to 3×10^−8 M) shortly before the test compound was applied to the cells.
4. Modulation of MMTV-Luc Induction in HeLa Cells
Testing of compounds for agonist or antagonist activity in stimulation of MMTV-(mouse mammary tumor virus) promoter in HeLa cells.
Cells were cultured overnight in DMEM medium without phenol red, supplemented with 3% CCS (charcoal treated calf serum) and then transferred to 96 well plates (15,000 cells/100 μL/well).

| Structure (SMILES) | activity as agonists of the glucocorticoid receptor function in one or more of the above assays |
| --- | --- |
| COc1ccc(F)cc1C(C)(C)CC(O)(Cc1cc2nc(C(C)C)ncc2[nH]1)C(F)(F)F (centres unmarked) [1,1,1-Trifluoro-4-(5-fluoro-2-methoxyphenyl)-2-(2-isopropyl-5H-pyrrolo[3,2-d]pyrimidin-6-ylmethyl)-4-methylpentan-2-ol] | potent agonists |
| CC(C)(CC(O)(Cc1cc2cc(-c3cccc(C#N)c3)ccc2[nH]1)C(F)(F)F)c1cc(F)cc2c1OCC2 (centres unmarked) [3-{2-[4-(5-Fluoro-2,3-dihydrobenzofuran-7-yl)-2-hydroxy-4-methyl-2-trifluoromethylpentyl]-1H-indol-5-yl}benzonitrile] | potent agonists |
| COc1ccc(-c2ccccc2Cl)cc1C(C)(C)CC(O)(Cc1cc2cc(N3CCCCC3)ncc2[nH]1)C(F)(F)F (centres unmarked) [4-(2′-Chloro-4-methoxybiphenyl-3-yl)-1,1,1-trifluoro-4-methyl-2-(5-piperidin-1-yl-1H-pyrrolo[2,3-c]pyridin-2-ylmethyl)pentan-2-ol] | potent agonists |
| Cc1c(CC(O)(CC(C)(C)c2ccc(F)cc2O)C(F)(F)F)[nH]c2cnccc12 (centres unmarked) [5-Fluoro-2-[4,4,4-trifluoro-3-hydroxy-1,1-dimethyl-3-(3-methyl-1H-pyrrolo[2,3-c]pyridin-2-ylmethyl)butyl]phenol] | potent agonists |
| CC(C)c1ncc2[nH]c(CC(O)(CC(C)(C)c3cc(Cl)cc4c3OCC4)C(F)(F)F)cc2n1 (centres unmarked) [4-(5-Chloro-2,3-dihydrobenzofuran-7-yl)-1,1,1-trifluoro-2-(2-isopropyl-5H-pyrrolo[3,2-d]pyrimidin-6-ylmethyl)-4-methylpentan-2-ol] | potent agonists |
| Cc1ccc(F)cc1C(C)(C)CC(O)(Cc1cc2nc(-c3ccccc3)ncc2[nH]1)C(F)(F)F (centres unmarked) [1,1,1-Trifluoro-4-(5-fluoro-2-methylphenyl)-4-methyl-2-(2-phenyl-5H-pyrrolo[3,2-d]pyrimidin-6-ylmethyl)pentan-2-ol] | potent agonists |
| CC(C)(CC(O)(Cc1cc2nc(-c3ccccc3)ncc2[nH]1)C(F)(F)F)c1ccccc1 (centres unmarked) [1,1,1-Trifluoro-4-methyl-4-phenyl-2-(2-phenyl-5H-pyrrolo[3,2-d]pyrimidin-6-ylmethyl)pentan-2-ol] | potent agonists |
| CC(C)(CC(O)(Cc1cc2cnccc2[nH]1)C(F)F)c1cc(Cl)cc2c1OCC2 (centres unmarked) [4-(5-Chloro-2,3-dihydrobenzofuran-7-yl)-1,1-difluoro-4-methyl-2-(1H-pyrrolo[3,2-c]pyridin-2-ylmethyl)pentan-2-ol] | agonists |
| COc1ccc(-c2cncnc2)cc1C(C)(C)CC(O)(Cc1cc2cc(O)ncc2[nH]1)C(F)(F)F (centres unmarked) [2-[2-Hydroxy-4-(2-methoxy-5-pyrimidin-5-ylphenyl)-4-methyl-2-trifluoromethylpentyl]-1H-pyrrolo[2,3-c]pyridin-5-ol] | potent agonists |
| CC(C)(CC(O)(Cc1cc2cc(-c3ccccn3)ccc2[nH]1)C(F)(F)F)c1cc(Cl)cc2c1OCC2 (centres unmarked) [4-(5-Chloro-2,3-dihydrobenzofuran-7-yl)-1,1,1-trifluoro-4-methyl-2-(5-pyridin-2-yl-1H-indol-2-ylmethyl)pentan-2-ol] | potent agonists |
| COc1ccc(F)cc1C(C)(C)CC(O)(Cc1cc2cnccc2[nH]1)C1CC1 (centres unmarked) [2-Cyclopropyl-4-(5-fluoro-2-methoxyphenyl)-4-methyl-1-(1H-pyrrolo[3,2-c]pyridin-2-yl)pentan-2-ol] | agonists |
| CC(C)(CC(O)(Cc1cc2cc(-c3ccccc3)nnc2[nH]1)C(F)(F)F)c1cccc(F)c1 (centres unmarked) [1,1,1-Trifluoro-4-(3-fluorophenyl)-4-methyl-2-(3-phenyl-7H-pyrrolo[2,3-c]pyridazin-6-ylmethyl)pentan-2-ol] | potent agonists |
| CC(C)(CC(O)(Cc1cc2ccncc2[nH]1)C(F)(F)F)c1cccc(C2OCCCO2)c1 (centres unmarked) [4-(3-[1,3]Dioxan-2-ylphenyl)-1,1,1-trifluoro-4-methyl-2-(1H-pyrrolo[2,3-c]pyridin-2-ylmethyl)pentan-2-ol] | potent agonists |
| CC(C)(CC(O)(Cc1cc2cc(Cl)ncc2[nH]1)C(F)(F)F)c1cc(Br)ccc1O (centres unmarked) [4-Bromo-2-[3-(5-chloro-1H-pyrrolo[2,3-c]pyridin-2-ylmethyl)-4,4,4-trifluoro-3-hydroxy-1,1-dimethylbutyl]phenol] | potent agonists |
| COc1ccc(-c2cncnc2)cc1C(C)(C)CC(O)(Cc1cc2cc(OC(C)C)ncc2[nH]1)C(F)(F)F (centres unmarked) [1,1,1-Trifluoro-2-(5-isopropoxy-1H-pyrrolo[2,3-c]pyridin-2-ylmethyl)-4-(2-methoxy-5-pyrimidin-5-ylphenyl)-4-methylpentan-2-ol] | potent agonists |
| COc1ccc(F)cc1C(C)(C)CC(O)(Cn1ccc2c1CCCC2=O)C(F)(F)F (centres unmarked) [1-[4-(5-Fluoro-2-methoxyphenyl)-2-hydroxy-4-methyl-2-trifluoromethylpentyl]-1,5,6,7-tetrahydroindol-4-one] | agonists |
| COc1ccc(F)cc1C(C)(C)CC(O)(Cc1cc2cnccc2[nH]1)C(C)(C)C (centres unmarked) [5-(5-Fluoro-2-methoxyphenyl)-2,2,5-trimethyl-3-(1H-pyrrolo[3,2-c]pyridin-2-ylmethyl)hexan-3-ol] | agonists |
| Cc1ccc(F)cc1C(C)(C)CC(O)(Cc1[nH]c2cnccc2c1C)C(C)(C)C (centres unmarked) [5-(5-Fluoro-2-methylphenyl)-2,2,5-trimethyl-3-(3-methyl-1H-pyrrolo[2,3-c]pyridin-2-ylmethyl)hexan-3-ol] | agonists |
| CC(C)C(O)(Cc1cc2ccncc2[nH]1)CC(C)(C)c1cc(Cl)cc2c1OCC2 (centres unmarked) [5-(5-Chloro-2,3-dihydrobenzofuran-7-yl)-2,5-dimethyl-3-(1H-pyrrolo[2,3-c]pyridin-2-ylmethyl)hexan-3-ol] | agonists |
| COc1ccc(F)cc1C(C)(C)CC(O)(Cc1cc2c(C#N)cccc2[nH]1)C(F)(F)F (centres unmarked) [2-[4-(5-Fluoro-2-methoxyphenyl)-2-hydroxy-4-methyl-2-trifluoromethylpentyl]-1H-indole-4-carbonitrile] | potent agonists |
| CCOc1cc2cc(CC(O)(CC(C)(C)c3cc(F)ccc3C)C(F)(F)F)[nH]c2cn1 (centres unmarked) [2-(5-Ethoxy-1H-pyrrolo[2,3-c]pyridin-2-ylmethyl)-1,1,1-trifluoro-4-(5-fluoro-2-methylphenyl)-4-methylpentan-2-ol] | potent agonists |
| CC(C)(CC(O)(Cc1cc2nc(-c3ccccc3)ncc2[nH]1)C(F)(F)F)c1cc(Cl)cc2c1OCC2 (centres unmarked) [4-(5-Chloro-2,3-dihydrobenzofuran-7-yl)-1,1,1-trifluoro-4-methyl-2-(2-phenyl-5H-pyrrolo[3,2-d]pyrimidin-6-ylmethyl)pentan-2-ol] | potent agonists |
| CC(C)(CC(O)(Cc1cc2cc(-c3cccnc3)ccc2[nH]1)C(F)(F)F)c1cc(F)cc2c1OCC2 (centres unmarked) [1,1,1-Trifluoro-4-(5-fluoro-2,3-dihydrobenzofuran-7-yl)-4-methyl-2-(5-pyridin-3-yl-1H-indol-2-ylmethyl)pentan-2-ol] | potent agonists |
